Measured values from ChEMBL document CHEMBL5625209, “Rational design and optimization of acylthioureas as novel potent influenza virus non-nucleoside polymerase inhibitors” (Eur J Med Chem, 2023).

system: Influenza A virus; assay: Antiviral activity against Influenza A virus H1N1 (A/Puerto Rico/8/34) harboring H274Y mutant infected in MDCK cells; assay type: functional, organism-based

Row | Structure (SMILES) | EC50
1 | CC(C)(C)c1ccc(C(=O)NC(=S)Nc2ccc(NC(=O)c3ccccc3)cc2)cc1 | 600 nM
2 | CC(C)(C)c1ccc(C(=O)NC(=S)Nc2ccc(NC(=O)c3ccc(Cl)cc3)cc2)cc1 | 400 nM
3 | CC(C)(C)c1ccc(C(=O)NC(=S)Nc2ccc(O)cc2)cc1 | 9400 nM
4 | CCC(=O)Nc1ccc(NC(=S)NC(=O)c2ccc(C(C)(C)C)cc2)cc1 | 5400 nM
5 | CC(C)(C)c1ccc(C(=O)NC(=S)Nc2ccc(NC(=O)c3ccc(C(C)(C)C)cc3)cc2)cc1 | 20 nM
